Entries after “also recorded” stand apart in the source; their conditions may differ. Read-outs that look alike come from different tables or passages of the source.

For this assay, the target named is neuraminidase from Clostridium perfringens (Clostridium perfringens, UniProt A0A0H2YQR1). It counts as biochemical. The settings on record: for Type of Inhibition: Lineweaver-Burk plot.
Chain of neuraminidase from Clostridium perfringens (A0A0H2YQR1 42-694 limits assumed): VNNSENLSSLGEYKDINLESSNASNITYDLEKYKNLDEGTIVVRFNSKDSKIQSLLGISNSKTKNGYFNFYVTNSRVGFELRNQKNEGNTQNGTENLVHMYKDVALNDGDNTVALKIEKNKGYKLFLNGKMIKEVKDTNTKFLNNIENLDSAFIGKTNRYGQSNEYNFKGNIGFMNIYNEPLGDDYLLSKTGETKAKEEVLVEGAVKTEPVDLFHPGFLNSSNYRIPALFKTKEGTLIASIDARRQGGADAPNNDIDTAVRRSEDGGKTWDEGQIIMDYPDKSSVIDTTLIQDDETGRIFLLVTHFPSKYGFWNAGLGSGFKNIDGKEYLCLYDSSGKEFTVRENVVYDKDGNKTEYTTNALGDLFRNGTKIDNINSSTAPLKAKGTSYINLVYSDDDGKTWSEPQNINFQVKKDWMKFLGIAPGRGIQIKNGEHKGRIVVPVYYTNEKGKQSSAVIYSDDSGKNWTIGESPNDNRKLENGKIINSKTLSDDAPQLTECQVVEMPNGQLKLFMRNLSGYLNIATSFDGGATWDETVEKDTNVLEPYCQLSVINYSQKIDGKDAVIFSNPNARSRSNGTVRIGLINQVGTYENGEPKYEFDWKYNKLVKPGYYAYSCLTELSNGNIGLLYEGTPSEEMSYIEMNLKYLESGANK

For `C=C1COC(=O)[C@]12C[C@@]1(C)C([C@@H](OC(=O)/C=C\SC)CC[C@@H]1C)[C@H]2OC(C)=O` (stereo partly shown) [compound 2, Bakkenolide D], the “Type of Inhibition” value is listed as “non-competitive inhibition”. The “Type of Inhibition” value (listed as Bakkenolide D (2)) was “non-competitive inhibitor; also recorded: Noncompetitive”.

With `O=C(/C=C/c1ccc(O)c(O)c1)O[C@@H]1C[C@](OC(=O)/C=C/c2ccc(O)c(O)c2)(C(=O)O)C[C@@H](O)[C@H]1O` [compound 3, 1,5-di-O-Caffeoylquinic Acid], the “Type of Inhibition” value was “competitive inhibitor”. Also, the “Type of Inhibition” value (listed as 1,5-di-O-caffeoylquinic acid (3, 1,5-COQ)) is “Competitive”. For the same molecule, the reversibility of inhibition entry (remaining enzyme activity versus enzyme concentration at different inhibitor concentrations (Figure 2b)) is given as “reversible inhibitor”.

As to `O=C(/C=C/c1ccc(O)c(O)c1)O[C@@H]1C[C@](O)(C(=O)O)C[C@@H](O)[C@H]1O` [compound 4, 5-O-Caffeoylquinic Acid], the “Type of Inhibition” value was “competitive inhibitor”. Further, the “Type of Inhibition” value (listed as 5-O-Caffeoylquinic acid (4, 5-COQ)) is “Competitive”.

For the origin of these results see paper PMC7357027 (Biomolecules, 2020).
